The text below walks through data of ChEMBL document CHEMBL5303765, “Data for DCP probe BAY-7081” (2023).

Test [1] deals with STE20/SPS1-related proline-alanine-rich protein kinase (Homo sapiens) (UniProt Q9UEW8). The test can be described thus: STK39 SGC Tm panel (DSF). Particulars: for ΔTm: Compound concentration 10.0 uM.
Test [2] concerns the target BMP-2-inducible protein kinase (Homo sapiens) (UniProt Q9NSY1). Nature of the test: BMP2K SGC Tm panel (DSF). The following applies: for ΔTm: Compound concentration 10.0 uM.
The target of test [3] is GABA-A receptor; anion channel (Rattus norvegicus) (UniProt O09028+P15431+P18506+P18508+P19969+P20236+P23574+P23576+P28471+P28473+P30191+P62813+P63079+P63138+Q91ZM7+Q9ES14). The following applies: Compound concentration 10.0 uM.
In test [4] the target is T1, Ephrin type-B receptor 3 (Homo sapiens) (UniProt P54753).
T1 sequence (whole entry): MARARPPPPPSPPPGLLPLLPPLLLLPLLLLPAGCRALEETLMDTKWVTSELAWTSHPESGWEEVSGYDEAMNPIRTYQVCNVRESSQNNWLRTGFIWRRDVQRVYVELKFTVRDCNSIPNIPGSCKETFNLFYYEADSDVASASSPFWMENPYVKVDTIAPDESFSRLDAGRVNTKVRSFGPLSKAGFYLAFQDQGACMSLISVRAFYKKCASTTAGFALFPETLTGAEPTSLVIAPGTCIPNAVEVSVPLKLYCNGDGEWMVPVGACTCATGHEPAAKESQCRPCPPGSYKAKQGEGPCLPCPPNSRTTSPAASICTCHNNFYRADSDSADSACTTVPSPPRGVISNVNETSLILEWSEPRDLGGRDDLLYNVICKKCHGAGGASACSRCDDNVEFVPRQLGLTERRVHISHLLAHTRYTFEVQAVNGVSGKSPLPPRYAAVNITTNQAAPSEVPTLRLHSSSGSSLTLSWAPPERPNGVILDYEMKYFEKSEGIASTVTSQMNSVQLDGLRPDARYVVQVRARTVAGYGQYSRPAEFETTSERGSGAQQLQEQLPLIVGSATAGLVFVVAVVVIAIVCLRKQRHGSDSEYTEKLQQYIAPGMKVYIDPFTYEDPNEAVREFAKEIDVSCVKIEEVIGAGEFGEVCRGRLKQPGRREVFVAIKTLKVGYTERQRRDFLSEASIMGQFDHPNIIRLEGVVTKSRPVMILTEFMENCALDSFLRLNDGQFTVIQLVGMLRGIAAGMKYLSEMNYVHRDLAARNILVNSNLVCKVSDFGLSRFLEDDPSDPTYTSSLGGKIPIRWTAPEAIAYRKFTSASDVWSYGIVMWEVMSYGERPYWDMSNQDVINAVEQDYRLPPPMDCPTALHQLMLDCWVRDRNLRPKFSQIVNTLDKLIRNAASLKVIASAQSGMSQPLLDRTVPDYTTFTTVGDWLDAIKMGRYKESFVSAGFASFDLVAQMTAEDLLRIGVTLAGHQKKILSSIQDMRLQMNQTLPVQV
The test can be described thus: EPHB3 SGC Tm panel (DSF). The following applies: for ΔTm: Compound concentration 10.0 uM.

The target of test [5] is T2, Dual specificity tyrosine-phosphorylation-regulated kinase 2 (Homo sapiens) (UniProt Q92630).
T2 sequence (whole entry): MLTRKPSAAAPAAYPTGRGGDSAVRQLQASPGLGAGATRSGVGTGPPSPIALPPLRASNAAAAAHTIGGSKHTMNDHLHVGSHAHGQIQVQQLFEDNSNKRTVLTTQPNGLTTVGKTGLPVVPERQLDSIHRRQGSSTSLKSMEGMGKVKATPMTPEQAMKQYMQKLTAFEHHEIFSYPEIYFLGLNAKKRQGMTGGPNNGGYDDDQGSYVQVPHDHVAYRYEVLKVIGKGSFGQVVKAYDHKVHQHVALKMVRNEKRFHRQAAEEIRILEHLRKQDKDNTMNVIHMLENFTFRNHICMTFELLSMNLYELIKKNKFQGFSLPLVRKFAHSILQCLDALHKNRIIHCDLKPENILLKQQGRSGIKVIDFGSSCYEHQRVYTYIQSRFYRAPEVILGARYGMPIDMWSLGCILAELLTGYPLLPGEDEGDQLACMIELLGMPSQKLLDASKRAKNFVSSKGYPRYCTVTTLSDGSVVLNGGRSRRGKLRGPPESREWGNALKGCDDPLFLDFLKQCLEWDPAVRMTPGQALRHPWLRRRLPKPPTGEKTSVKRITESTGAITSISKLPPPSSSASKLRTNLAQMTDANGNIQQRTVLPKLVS
Nature of the test: DYRK2 SGC Tm panel (DSF). The following applies: for ΔTm: Compound concentration 10.0 uM.

The target in test [6] is D(2) dopamine receptor (Homo sapiens) (UniProt P14416). The following applies: Compound concentration 10.0 uM.
Sequence of D(2) dopamine receptor (Homo sapiens) (P14416 whole entry): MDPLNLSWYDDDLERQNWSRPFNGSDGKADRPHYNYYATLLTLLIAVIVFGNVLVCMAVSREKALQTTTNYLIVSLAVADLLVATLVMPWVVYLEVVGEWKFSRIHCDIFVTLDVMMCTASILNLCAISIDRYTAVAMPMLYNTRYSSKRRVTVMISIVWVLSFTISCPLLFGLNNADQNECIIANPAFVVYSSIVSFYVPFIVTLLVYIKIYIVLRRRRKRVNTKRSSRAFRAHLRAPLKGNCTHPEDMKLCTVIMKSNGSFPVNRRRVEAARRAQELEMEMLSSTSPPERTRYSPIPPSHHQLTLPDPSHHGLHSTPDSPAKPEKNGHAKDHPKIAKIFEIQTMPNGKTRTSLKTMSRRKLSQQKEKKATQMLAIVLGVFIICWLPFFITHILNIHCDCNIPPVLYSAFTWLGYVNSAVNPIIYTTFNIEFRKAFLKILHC
In test [7] the target is T3, Ferrochelatase, mitochondrial (Homo sapiens) (UniProt P22830).
T3 sequence (whole entry): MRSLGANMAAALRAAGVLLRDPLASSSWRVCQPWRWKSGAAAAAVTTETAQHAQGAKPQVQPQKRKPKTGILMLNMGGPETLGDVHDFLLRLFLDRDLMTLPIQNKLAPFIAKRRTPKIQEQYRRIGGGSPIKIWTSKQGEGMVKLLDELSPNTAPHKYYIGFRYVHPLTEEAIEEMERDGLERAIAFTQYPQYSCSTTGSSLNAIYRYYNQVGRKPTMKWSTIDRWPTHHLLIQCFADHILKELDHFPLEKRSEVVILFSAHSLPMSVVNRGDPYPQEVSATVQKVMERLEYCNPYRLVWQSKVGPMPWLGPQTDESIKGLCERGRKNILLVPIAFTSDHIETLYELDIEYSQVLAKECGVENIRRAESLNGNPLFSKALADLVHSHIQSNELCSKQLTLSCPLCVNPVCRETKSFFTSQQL
The test can be described thus: FECHHS SGC Tm panel (DSF). The following applies: for ΔTm: Compound concentration 10.0 uM.

Test [8] has as its target T4, Alpha-2A adrenergic receptor (Homo sapiens) (UniProt P08913).
T4 sequence (whole entry): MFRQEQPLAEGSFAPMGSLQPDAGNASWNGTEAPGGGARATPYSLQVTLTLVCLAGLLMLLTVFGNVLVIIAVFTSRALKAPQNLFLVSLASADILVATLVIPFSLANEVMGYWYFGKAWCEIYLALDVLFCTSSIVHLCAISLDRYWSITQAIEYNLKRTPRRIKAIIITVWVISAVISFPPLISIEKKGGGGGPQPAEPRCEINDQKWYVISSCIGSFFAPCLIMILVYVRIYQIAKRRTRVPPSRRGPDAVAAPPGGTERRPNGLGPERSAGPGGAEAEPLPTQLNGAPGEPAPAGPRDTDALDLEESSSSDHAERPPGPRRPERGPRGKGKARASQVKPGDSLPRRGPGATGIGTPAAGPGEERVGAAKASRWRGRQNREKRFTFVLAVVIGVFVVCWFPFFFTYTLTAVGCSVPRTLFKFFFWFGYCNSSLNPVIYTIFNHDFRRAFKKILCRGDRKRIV
The following applies: Compound concentration 10.0 uM.

For test [9], the target named is G protein-coupled receptor kinase 5 (Homo sapiens) (UniProt P34947). Nature of the test: GPRK5 SGC Tm panel (DSF). Particulars: for ΔTm: Compound concentration 10.0 uM.
Sequence of G protein-coupled receptor kinase 5 (Homo sapiens) (P34947 whole entry, looked up): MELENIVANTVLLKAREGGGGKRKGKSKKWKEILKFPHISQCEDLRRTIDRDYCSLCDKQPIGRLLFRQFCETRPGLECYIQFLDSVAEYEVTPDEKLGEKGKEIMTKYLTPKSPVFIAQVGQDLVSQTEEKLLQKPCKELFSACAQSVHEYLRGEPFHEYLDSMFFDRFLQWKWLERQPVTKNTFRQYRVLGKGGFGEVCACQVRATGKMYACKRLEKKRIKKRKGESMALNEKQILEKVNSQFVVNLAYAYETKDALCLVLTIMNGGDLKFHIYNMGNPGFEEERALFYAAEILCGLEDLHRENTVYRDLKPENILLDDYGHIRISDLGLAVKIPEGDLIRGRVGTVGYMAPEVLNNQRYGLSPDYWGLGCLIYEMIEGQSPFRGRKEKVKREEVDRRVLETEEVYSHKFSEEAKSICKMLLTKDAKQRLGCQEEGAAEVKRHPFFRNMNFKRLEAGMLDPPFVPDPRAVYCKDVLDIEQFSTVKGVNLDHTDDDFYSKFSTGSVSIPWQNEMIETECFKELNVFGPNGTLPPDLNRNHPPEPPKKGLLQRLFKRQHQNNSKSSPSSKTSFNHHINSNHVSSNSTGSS

Sequence of BMP-2-inducible protein kinase (Homo sapiens) (Q9NSY1 whole entry, looked up): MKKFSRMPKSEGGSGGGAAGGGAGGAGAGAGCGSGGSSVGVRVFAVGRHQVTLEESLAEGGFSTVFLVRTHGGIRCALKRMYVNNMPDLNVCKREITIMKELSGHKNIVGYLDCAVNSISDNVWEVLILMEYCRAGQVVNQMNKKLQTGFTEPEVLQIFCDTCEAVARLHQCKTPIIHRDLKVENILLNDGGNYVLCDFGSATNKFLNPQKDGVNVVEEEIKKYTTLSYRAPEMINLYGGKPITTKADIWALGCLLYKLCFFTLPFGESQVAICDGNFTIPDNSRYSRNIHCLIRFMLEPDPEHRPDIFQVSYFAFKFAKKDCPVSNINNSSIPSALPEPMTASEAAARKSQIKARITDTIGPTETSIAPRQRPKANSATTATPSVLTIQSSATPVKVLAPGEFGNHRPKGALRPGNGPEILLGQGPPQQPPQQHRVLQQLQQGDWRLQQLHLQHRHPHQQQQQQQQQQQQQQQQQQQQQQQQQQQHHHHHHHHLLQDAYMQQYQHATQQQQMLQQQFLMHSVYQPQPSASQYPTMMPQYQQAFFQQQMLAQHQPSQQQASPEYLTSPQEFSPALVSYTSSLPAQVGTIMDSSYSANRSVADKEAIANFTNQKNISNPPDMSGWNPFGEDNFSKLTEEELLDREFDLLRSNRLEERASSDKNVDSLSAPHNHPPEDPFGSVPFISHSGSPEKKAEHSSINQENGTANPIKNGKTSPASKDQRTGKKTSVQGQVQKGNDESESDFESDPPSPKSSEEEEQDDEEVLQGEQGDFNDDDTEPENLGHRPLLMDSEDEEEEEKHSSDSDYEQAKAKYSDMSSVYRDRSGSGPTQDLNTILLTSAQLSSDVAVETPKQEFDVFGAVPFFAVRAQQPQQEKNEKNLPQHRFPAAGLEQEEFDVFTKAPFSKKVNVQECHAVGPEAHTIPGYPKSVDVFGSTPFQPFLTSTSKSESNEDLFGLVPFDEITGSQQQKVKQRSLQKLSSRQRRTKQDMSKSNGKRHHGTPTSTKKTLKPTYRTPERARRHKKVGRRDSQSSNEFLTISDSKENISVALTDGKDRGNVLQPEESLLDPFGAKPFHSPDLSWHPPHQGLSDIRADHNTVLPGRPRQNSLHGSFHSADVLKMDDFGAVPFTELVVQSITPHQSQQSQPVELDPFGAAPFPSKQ

With `CCC[C@H]1CNCc2c1[nH]c(=O)c(C#N)c2N1CCC2(CC1)CC2`, the delta Tm Staurosporine positive control in [1] came out at 9.01; in test [2], 18.7; in test [4] it was 7.02; in test [5], 5.55; in test [7] it was 2.89; in test [9], 7.03. The ΔTm in test [1] is -0.273; in test [2], -0.103; in test [4], -2.51; in [5], -0.198; in test [7], -1.08; in test [9], 0.0527. Moreover, the values for the inhibition in [3], in [6] and in [8] were 3.16%, 3.01% and 5.64%, respectively.

Consider `CCC[C@@H]1CNCc2c1[nH]c(=O)c(C#N)c2N1CCC2(CC1)CC2`, for which the delta Tm Staurosporine positive control turned out to be 9.01 in [1]; 18.7 in [2]; 7.02 in test [4]; 5.55 in [5]; 2.89 in test [7]; 7.03 in [9]. In addition, the ΔTm in [1] is -0.455; in test [2], -0.192; in [4] it was -2.16; in test [5], -0.189; in test [7], -1.34; in test [9], 0.00192. In addition, the inhibition was -5.59% in [3], -4.21% in test [6] and 9.55% in [8].
